Test results as given in PMC10343299, “S-Ethyl-Isothiocitrullin-Based Dipeptides and 1,2,4-Oxadiazole Pseudo-Dipeptides: Solid Phase Synthesis and Evaluation as NO Synthase Inhibitors” (Molecules, 2023).
Where two headings read alike, the source gives them in different places.

Columns and labels:
rat nNOS = biological target: T1, rat nNOS (Rattus norvegicus, UniProt P29476); test: NOS inhibition, oxyhemoglobin (hemoglobin capture) test, recombinant nNOS; assay type: biochemical
T1 construct: Full-length recombinant rat nNOS, mouse iNOS, bovine eNOS; made in house; host or cells: Escherichia coli
Experimental: (§1) The inhibitory effects of all compounds against the three recombinant NOSs (rat nNOS, mouse iNOS, and bovine eNOS) were evaluated in 96-well plates using the oxyhemoglobin test. A first screening at 100 and 10 μM was performed, and the IC50 values were measured for compounds showing more than 50% inhibition at 100 μM (Table 1 and Table 2).
(§2) Full-length recombinant rat nNOS, mouse iNOS, bovine eNOS, and the heme domains of rat brain nNOS and mouse iNOS were expressed in Escherichia coli and purified as described previously.
(§3) NOS catalytic activity was measured using the hemoglobin capture assay. The test was performed at 30 °C in 96-well microplates using a final volume of 200 µL. The assay mixture contained 100 µM NADPH, 10 µM BH4, 6 µM HbO2, 100 µM DTT, 5 µM FAD, 5 µM FMN, 10 µM (nNOS and eNOS), or 20 µM (iNOS) arginine, all in a 100 mM Hepes buffer, pH 7.5, and, for constitutive n- and e-NOS, 10 µg/mL calmodulin, and 1 mM CaCl2. The studied compounds were introduced as 2 μL of ×100 concentrated solutions in DMSO, and the control experiments were performed with DMSO or the buffer only. The kinetics of NO production were measured at 401 nm using an Infinite F500 microplate reader (Tecan, Singapore).

mouse iNOS = biological target: T2, mouse iNOS (Mus musculus, UniProt P29477); test: NOS inhibition, oxyhemoglobin (hemoglobin capture) test, recombinant iNOS; assay type: biochemical; settings: recombinant enzyme, 20 µM arginine, triplicate, NI = <50% inhibition at 100 μM
T2 construct: Full-length recombinant rat nNOS, mouse iNOS, bovine eNOS; made in house; host or cells: Escherichia coli
T2 sequence (P29477 1-1144): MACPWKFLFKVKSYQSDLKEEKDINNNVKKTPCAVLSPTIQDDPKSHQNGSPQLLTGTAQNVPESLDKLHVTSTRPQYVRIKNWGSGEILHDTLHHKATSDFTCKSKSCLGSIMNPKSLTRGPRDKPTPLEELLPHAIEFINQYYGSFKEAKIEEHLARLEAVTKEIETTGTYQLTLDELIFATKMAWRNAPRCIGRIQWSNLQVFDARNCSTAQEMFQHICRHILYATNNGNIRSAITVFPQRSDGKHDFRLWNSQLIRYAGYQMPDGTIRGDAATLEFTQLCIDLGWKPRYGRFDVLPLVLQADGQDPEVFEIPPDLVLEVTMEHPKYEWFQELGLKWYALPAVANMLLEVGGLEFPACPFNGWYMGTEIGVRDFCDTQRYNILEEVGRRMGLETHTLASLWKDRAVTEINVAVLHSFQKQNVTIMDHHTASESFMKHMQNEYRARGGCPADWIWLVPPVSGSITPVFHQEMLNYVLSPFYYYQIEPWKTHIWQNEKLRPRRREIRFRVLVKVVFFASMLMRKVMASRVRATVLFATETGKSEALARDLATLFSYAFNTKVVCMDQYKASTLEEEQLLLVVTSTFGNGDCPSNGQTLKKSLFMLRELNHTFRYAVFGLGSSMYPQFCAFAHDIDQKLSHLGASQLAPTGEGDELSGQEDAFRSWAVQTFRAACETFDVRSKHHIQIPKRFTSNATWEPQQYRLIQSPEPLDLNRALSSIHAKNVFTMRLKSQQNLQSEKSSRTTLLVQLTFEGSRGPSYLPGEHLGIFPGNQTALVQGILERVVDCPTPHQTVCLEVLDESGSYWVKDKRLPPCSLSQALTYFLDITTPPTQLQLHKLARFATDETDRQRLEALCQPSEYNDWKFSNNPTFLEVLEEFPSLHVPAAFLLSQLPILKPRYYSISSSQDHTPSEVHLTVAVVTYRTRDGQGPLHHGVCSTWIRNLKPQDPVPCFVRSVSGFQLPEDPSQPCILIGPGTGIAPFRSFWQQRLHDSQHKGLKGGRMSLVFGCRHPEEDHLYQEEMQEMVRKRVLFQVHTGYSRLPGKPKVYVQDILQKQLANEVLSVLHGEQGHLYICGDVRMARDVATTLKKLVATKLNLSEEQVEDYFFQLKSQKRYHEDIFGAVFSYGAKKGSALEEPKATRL
Experimental: as §1, §2, §3

bovine eNOS = biological target: T3, bovine eNOS (Bos taurus, UniProt P29473); test: NOS inhibition, oxyhemoglobin (hemoglobin capture) test, recombinant eNOS; assay type: biochemical; settings: recombinant enzyme, 10 µM arginine, triplicate, NI = <50% inhibition at 100 μM; for inhibition at 100 µM: read-out: IC50 (μM) eNOS (Bovine)
T3 construct: Full-length recombinant rat nNOS, mouse iNOS, bovine eNOS; made in house; host or cells: Escherichia coli
Experimental: The inhibitory effects of all compounds against the three recombinant NOSs (rat nNOS, mouse iNOS, and bovine eNOS) were evaluated in 96-well plates using the oxyhemoglobin test [53].
NOS catalytic activity was measured using the hemoglobin capture assay [53]. The test was performed at 30 °C in 96-well microplates using a final volume of 200 µL. The assay mixture contained 100 µM NADPH, 10 µM BH4, 6 µM HbO2, 100 µM DTT, 5 µM FAD, 5 µM FMN, 10 µM (nNOS and eNOS), or 20 µM (iNOS) arginine, all in a 100 mM Hepes buffer, pH 7.5, and, for constitutive n- and e-NOS, 10 µg/mL calmodulin, and 1 mM CaCl2. The studied compounds were introduced as 2 μL of ×100 concentrated solutions in DMSO, and the control experiments were performed with DMSO or the buffer only. The kinetics of NO production were measured at 401 nm using an Infinite F500 microplate reader (Tecan, Singapore).

RAW 264.7 cells = test: Cell viability, MTT assay; assay type: cell-based, murine
Experimental: Cell viability was evaluated in the murine macrophage RAW 264.7 cells using an MTT assay for compounds 18, 21, 26, and 30. This experiment was performed without or with LPS (1 µg/mL), which induces iNOS expression (Figure S1). […] Compound 30 only killed 20% of the cells at 500 μM (Figure S1A). In the presence of LPS (1 µg/mL), cell viability was reduced by 30% due to the inhibition by NO of key enzymes involved in cell metabolism (Figure S1B).
The macrophage cell line RAW 264.7 (a gift from Dr. A. Blangy, Montpellier, France) was cultured in Dulbecco’s Modified Eagle’s Medium (DMEM) supplemented with 10% FCS, 100 units/mL penicillin, 100 µg/mL streptomycin, and 2 mM L-glutamine.
Cellular NO production was measured using the Griess reagent (Sigma-Aldrich), which evaluates the nitrite content in culture media. Cellular toxicity was estimated by the MTT assay (Sigma-Aldrich) in RAW 264.7 cells after the induction (or not) of iNOS by LPS, according to the manufacturer’s recommendations.

[1] = dipeptide-like series, recombinant enzyme, 10 µM arginine, triplicate, NI = <50% inhibition at 100 μM
[2] = 1,2,4-oxadiazole series, recombinant enzyme, 10 µM arginine, triplicate, NI = <50% inhibition at 100 μM

T3 sequence (P29473 whole entry): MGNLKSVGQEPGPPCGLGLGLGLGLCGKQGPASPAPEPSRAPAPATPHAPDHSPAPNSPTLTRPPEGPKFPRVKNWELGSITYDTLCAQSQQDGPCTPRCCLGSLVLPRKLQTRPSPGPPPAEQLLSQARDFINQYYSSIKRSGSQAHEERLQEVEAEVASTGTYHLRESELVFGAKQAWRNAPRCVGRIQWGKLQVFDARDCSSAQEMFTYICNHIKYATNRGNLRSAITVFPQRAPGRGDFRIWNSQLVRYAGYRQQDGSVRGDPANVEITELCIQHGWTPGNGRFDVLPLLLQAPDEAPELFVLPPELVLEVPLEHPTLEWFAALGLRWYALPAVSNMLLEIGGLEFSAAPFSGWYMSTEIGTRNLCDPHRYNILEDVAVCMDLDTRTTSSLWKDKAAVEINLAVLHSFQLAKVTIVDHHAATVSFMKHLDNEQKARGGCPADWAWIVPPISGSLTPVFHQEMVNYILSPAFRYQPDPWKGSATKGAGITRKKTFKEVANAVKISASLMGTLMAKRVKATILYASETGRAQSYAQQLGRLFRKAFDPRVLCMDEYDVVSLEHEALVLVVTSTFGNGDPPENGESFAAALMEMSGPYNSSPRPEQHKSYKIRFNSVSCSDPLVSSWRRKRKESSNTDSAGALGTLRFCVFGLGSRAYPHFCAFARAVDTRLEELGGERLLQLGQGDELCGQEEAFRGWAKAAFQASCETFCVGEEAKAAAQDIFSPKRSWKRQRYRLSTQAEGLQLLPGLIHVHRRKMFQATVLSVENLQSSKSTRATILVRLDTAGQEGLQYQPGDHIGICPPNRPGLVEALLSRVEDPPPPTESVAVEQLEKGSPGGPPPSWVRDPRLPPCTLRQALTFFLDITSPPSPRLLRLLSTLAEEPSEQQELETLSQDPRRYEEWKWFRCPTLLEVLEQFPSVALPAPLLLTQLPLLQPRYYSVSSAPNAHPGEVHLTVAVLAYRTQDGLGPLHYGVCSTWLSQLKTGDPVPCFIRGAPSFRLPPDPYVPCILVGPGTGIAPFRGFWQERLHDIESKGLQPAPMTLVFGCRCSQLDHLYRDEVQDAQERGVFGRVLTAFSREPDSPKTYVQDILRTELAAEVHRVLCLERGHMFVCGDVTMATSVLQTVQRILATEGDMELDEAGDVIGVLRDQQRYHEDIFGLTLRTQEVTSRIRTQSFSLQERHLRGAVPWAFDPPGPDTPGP
T1 sequence (P29476 whole entry): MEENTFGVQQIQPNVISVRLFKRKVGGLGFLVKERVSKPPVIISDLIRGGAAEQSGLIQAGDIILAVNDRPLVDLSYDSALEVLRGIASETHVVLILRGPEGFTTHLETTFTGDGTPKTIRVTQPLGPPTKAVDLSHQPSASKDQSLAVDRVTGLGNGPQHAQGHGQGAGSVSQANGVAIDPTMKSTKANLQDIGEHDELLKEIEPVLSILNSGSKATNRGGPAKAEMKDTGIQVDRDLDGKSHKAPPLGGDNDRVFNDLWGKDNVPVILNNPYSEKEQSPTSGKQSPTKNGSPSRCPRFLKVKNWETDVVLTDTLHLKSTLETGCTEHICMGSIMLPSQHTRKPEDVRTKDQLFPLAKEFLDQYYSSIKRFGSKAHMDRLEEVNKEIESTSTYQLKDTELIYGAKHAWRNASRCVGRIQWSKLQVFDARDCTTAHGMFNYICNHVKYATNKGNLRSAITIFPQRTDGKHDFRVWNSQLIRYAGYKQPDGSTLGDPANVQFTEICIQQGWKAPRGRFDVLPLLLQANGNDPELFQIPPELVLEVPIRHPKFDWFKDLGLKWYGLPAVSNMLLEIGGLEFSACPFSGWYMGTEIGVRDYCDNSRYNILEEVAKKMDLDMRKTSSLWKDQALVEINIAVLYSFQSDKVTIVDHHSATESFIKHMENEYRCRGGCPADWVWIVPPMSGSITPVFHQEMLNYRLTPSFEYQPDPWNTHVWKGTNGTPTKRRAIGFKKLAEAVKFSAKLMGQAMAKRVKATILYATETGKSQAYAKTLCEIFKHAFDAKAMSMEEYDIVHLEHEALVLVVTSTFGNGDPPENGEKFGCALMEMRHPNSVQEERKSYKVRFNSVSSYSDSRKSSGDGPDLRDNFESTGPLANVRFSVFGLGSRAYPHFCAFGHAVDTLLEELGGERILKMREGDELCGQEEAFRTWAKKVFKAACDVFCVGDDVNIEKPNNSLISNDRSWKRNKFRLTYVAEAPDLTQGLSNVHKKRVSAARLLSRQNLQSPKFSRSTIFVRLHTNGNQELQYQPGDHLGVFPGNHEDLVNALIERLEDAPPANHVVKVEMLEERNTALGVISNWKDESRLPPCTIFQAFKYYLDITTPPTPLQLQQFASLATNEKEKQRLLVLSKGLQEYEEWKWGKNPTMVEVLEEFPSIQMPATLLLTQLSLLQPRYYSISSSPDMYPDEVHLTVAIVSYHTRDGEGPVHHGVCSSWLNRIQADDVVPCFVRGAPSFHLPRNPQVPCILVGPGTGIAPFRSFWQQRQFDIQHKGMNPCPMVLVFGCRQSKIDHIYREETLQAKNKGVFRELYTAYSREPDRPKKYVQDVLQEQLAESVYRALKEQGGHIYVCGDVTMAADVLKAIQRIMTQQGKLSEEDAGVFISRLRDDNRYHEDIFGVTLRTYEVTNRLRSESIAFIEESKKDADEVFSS

CCSC(=N)NCCC[C@H](N)C(=O)N[C@@H]1CCCN(Cc2ccccc2)C1 [Compound 8]
IC50 (rat nNOS; [1]): 15.6 µM | IC50 (mouse iNOS; dipeptide-like series): 25.6 µM | inhibition at 100 µM (bovine eNOS; dipeptide-like series): < 50%

CCSC(=N)NCCC[C@H](N)C(=O)N[C@H]1CCCN(Cc2ccccc2O)C1 [Compound 9]
IC50 (rat nNOS; [1]): 51.1 µM | IC50 (mouse iNOS; dipeptide-like series): 51 µM | inhibition at 100 µM (bovine eNOS; dipeptide-like series): < 50%

CCSC(=N)NCCC[C@H](N)C(=O)N[C@H]1CCCN(Cc2cc(O)ccc2O)C1 [Compound 10]
IC50 (rat nNOS; [1]): 2 µM | IC50 (mouse iNOS; dipeptide-like series): 23.9 µM | IC50 (bovine eNOS; dipeptide-like series): 26.7 µM

CCSC(=N)NCCC[C@H](N)C(=O)N[C@@H]1CCCN(Cc2cc(O)ccc2O)C1 [Compound 11]
IC50 (mouse iNOS; dipeptide-like series): 73.4 µM | IC50 (bovine eNOS; dipeptide-like series): 25.4 µM

CCSC(=N)NCCC[C@H](N)C(=O)N[C@H]1CCCN(Cc2ccccc2[N+](=O)[O-])C1 [Compound 12]
inhibition at 100 µM (rat nNOS; dipeptide-like series, recombinant enzyme, 10 µM arginine, triplicate, NI = <50% inhibition at 100 μM, read-out: IC50 (μM) nNOS (Rat)): < 50% | IC50 (mouse iNOS; dipeptide-like series): 46 µM | inhibition at 100 µM (bovine eNOS; dipeptide-like series): < 50%

CCSC(=N)NCCC[C@H](N)C(=O)N[C@@H]1CCCN(Cc2ccccc2[N+](=O)[O-])C1 [Compound 13]
IC50 (rat nNOS; [1]): 30.6 µM | IC50 (mouse iNOS; dipeptide-like series): 78.9 µM | inhibition at 100 µM (bovine eNOS; dipeptide-like series): < 50%

CCSC(=N)NCCC[C@H](N)C(=O)N[C@H]1CCCN(Cc2cc(O)ccc2[N+](=O)[O-])C1 [Compound 15]
IC50 (rat nNOS; [1]): 25.2 µM | IC50 (mouse iNOS; dipeptide-like series): 31.3 µM | inhibition at 100 µM (bovine eNOS; dipeptide-like series): < 50%

CCSC(=N)NCCC[C@H](N)C(=O)N[C@H]1CCCN(Cc2cc(OC)c(OC)c(OC)c2)C1 [Compound 16]
IC50 (rat nNOS; [1]): 49.6 µM | IC50 (mouse iNOS; dipeptide-like series): 54.9 µM | inhibition at 100 µM (bovine eNOS; dipeptide-like series): < 50%

CCSC(=N)NCCC[C@H](N)C(=O)N[C@H]1CCCN(Cc2cccc(C(F)(F)F)c2)C1 [Compound 20]
IC50 (rat nNOS; [1]): 15.4 µM | inhibition at 100 µM (mouse iNOS; dipeptide-like series, read-out: IC50 (μM) iNOS (Mouse)): < 50% | inhibition at 100 µM (bovine eNOS; dipeptide-like series): < 50%

CCSC(=N)NCCC[C@H](N)C(=O)N[C@H]1CCCN(Cc2ccc(-c3cccc([N+](=O)[O-])c3)cc2)C1 [Compound 24]
IC50 (rat nNOS; [1]): 3.5 µM | IC50 (mouse iNOS; dipeptide-like series): 21.6 µM | IC50 (bovine eNOS; dipeptide-like series): 18 µM

CCSC(=N)NCCC[C@H](N)C(=O)N[C@H]1CCCN(Cc2cccc(-c3ccccc3)c2)C1 [Compound 25]
IC50 (rat nNOS; [1]): 2.8 µM | IC50 (mouse iNOS; dipeptide-like series): 36.5 µM | inhibition at 100 µM (bovine eNOS; dipeptide-like series): < 50%

CCSC(=N)NCCC[C@H](N)C(=O)N[C@H]1CCCN(Cc2cccc(-c3cccc([N+](=O)[O-])c3)c2)C1 [Compound 26]
IC50 (rat nNOS; [1]): 1.3 µM | IC50 (mouse iNOS; dipeptide-like series): 48.3 µM | inhibition at 100 µM (bovine eNOS; dipeptide-like series): < 50% | Reversal of LPS-induced reduction of cell viability (RAW 264.7 cells; RAW 264.7, LPS 1 µg/mL): none partially reversed the LPS effect | Effect on cell viability (MTT) (RAW 264.7 cells; RAW 264.7, absence of LPS, up to 100 μM): fully toxic

CCSC(=N)NCCC[C@H](N)c1nc(CCN)no1 [Compound 28]
IC50 (rat nNOS; [2]): 58.9 µM | IC50 (mouse iNOS; 1,2,4-oxadiazole series): 83.7 µM | inhibition at 100 µM (bovine eNOS; 1,2,4-oxadiazole series): < 50%

CCSC(=N)NCCC[C@H](N)c1nc(CCNCc2ccccc2)no1 [Compound 29]
IC50 (rat nNOS; [2]): 13.4 µM | IC50 (mouse iNOS; 1,2,4-oxadiazole series): 11.1 µM | IC50 (bovine eNOS; 1,2,4-oxadiazole series): 17.9 µM

CCSC(=N)NCCC[C@H](N)c1nc(CCN(Cc2ccccc2C)Cc2ccccc2C)no1 [Compound 31]
IC50 (rat nNOS; [2]): 9.9 µM | IC50 (mouse iNOS; 1,2,4-oxadiazole series): 11.1 µM | inhibition at 100 µM (bovine eNOS; 1,2,4-oxadiazole series): < 50%

CCSC(=N)NCCC[C@H](N)c1nc(CCNCc2c(C)cccc2C)no1 [Compound 32]
IC50 (rat nNOS; [2]): 60.1 µM | IC50 (mouse iNOS; 1,2,4-oxadiazole series): 51.6 µM

CCSC(=N)NCCC[C@H](N)c1nc(CCN(Cc2c(C)cccc2C)Cc2c(C)cccc2C)no1 [Compound 33]
IC50 (rat nNOS; [2]): 10.1 µM | IC50 (mouse iNOS; 1,2,4-oxadiazole series): 71.5 µM | inhibition at 100 µM (bovine eNOS; 1,2,4-oxadiazole series): < 50%

CCSC(=N)NCCC[C@H](N)c1nc(CCN(Cc2cccc3ccccc23)Cc2cccc3ccccc23)no1 [Compound 34]
IC50 (rat nNOS; [2]): 1.4 µM | IC50 (mouse iNOS; 1,2,4-oxadiazole series): 4 µM | inhibition at 100 µM (bovine eNOS; 1,2,4-oxadiazole series): < 50%

CCSC(=N)NCCC[C@H](N)c1nc(CCN(Cc2ccccc2O)Cc2ccccc2O)no1 [Compound 36]
IC50 (rat nNOS; [2]): 3.1 µM | IC50 (mouse iNOS; 1,2,4-oxadiazole series): 24.3 µM | IC50 (bovine eNOS; 1,2,4-oxadiazole series): 20.2 µM

CCSC(=N)NCCC[C@H](N)c1nc(CCN(Cc2ccc([N+](=O)[O-])cc2)Cc2ccc([N+](=O)[O-])cc2)no1 [Compound 37]
IC50 (rat nNOS; [2]): 0.3 µM | Selectivity for nNOS against eNOS (rat nNOS; from IC50 values): ~40 fold | Selectivity for nNOS against iNOS (rat nNOS; from IC50 values): ~50 fold | Gain in nNOS inhibition potency over non-substituted compound 28 (rat nNOS; times more potent than 28): 200 | IC50 (mouse iNOS; 1,2,4-oxadiazole series): 15.8 µM | IC50 (bovine eNOS; 1,2,4-oxadiazole series): 11.8 µM

CCSC(=N)NCCC[C@H](N)c1nc(CCN(Cc2cccc([N+](=O)[O-])c2)Cc2cccc([N+](=O)[O-])c2)no1 [Compound 38]
IC50 (rat nNOS; [2]): 0.6 µM | IC50 (mouse iNOS; 1,2,4-oxadiazole series): 15.9 µM | IC50 (bovine eNOS; 1,2,4-oxadiazole series): 3.9 µM

CCSC(=N)NCCC[C@H](N)c1nc(CCNCc2ccccc2[N+](=O)[O-])no1 [Compound 39]
IC50 (rat nNOS; [2]): 27 µM | IC50 (mouse iNOS; 1,2,4-oxadiazole series): 8 µM | IC50 (bovine eNOS; 1,2,4-oxadiazole series): 48.2 µM

CCSC(=N)NCCC[C@H](N)c1nc(CCNCc2cc(O)ccc2[N+](=O)[O-])no1 [Compound 41]
IC50 (rat nNOS; [2]): 3 µM | IC50 (mouse iNOS; 1,2,4-oxadiazole series): 36.3 µM

CCSC(=N)NCCC[C@H](N)c1nc(CCN(Cc2cc(O)ccc2[N+](=O)[O-])Cc2cc(O)ccc2[N+](=O)[O-])no1 [Compound 42]
IC50 (rat nNOS; [2]): 1.1 µM | IC50 (mouse iNOS; 1,2,4-oxadiazole series): 7 µM | inhibition at 100 µM (bovine eNOS; 1,2,4-oxadiazole series): < 50%
